Data: publication PMC9571063 (Molecules, 2022)

What was measured:
Assay in all cases: KINOMEscan
Type in all cases: binding
Settings in all cases: read-out: Percent Control
[1] = target: T1, ABL1-nonphosphorylated (Homo sapiens, UniProt P00519)
T1 construct: purchased Eurofins DiscoverX KINOMEscan (scanMAX 468)

[2] = target: T2, FES (Homo sapiens, UniProt P07332)
T2 construct: purchased Eurofins DiscoverX KINOMEscan (scanMAX 468)

[3] = target: T3, PKMYT1 (Homo sapiens, UniProt Q99640)
T3 construct: purchased Eurofins DiscoverX KINOMEscan (scanMAX 468)

[4] = target: T4, CAMK2A (Homo sapiens, UniProt Q9UQM7)
T4 construct: purchased Eurofins DiscoverX KINOMEscan (scanMAX 468)

[5] = target: T5, MYO3B (Homo sapiens, UniProt Q8WXR4)
T5 construct: purchased Eurofins DiscoverX KINOMEscan (scanMAX 468)
T5 sequence (Q8WXR4 whole entry): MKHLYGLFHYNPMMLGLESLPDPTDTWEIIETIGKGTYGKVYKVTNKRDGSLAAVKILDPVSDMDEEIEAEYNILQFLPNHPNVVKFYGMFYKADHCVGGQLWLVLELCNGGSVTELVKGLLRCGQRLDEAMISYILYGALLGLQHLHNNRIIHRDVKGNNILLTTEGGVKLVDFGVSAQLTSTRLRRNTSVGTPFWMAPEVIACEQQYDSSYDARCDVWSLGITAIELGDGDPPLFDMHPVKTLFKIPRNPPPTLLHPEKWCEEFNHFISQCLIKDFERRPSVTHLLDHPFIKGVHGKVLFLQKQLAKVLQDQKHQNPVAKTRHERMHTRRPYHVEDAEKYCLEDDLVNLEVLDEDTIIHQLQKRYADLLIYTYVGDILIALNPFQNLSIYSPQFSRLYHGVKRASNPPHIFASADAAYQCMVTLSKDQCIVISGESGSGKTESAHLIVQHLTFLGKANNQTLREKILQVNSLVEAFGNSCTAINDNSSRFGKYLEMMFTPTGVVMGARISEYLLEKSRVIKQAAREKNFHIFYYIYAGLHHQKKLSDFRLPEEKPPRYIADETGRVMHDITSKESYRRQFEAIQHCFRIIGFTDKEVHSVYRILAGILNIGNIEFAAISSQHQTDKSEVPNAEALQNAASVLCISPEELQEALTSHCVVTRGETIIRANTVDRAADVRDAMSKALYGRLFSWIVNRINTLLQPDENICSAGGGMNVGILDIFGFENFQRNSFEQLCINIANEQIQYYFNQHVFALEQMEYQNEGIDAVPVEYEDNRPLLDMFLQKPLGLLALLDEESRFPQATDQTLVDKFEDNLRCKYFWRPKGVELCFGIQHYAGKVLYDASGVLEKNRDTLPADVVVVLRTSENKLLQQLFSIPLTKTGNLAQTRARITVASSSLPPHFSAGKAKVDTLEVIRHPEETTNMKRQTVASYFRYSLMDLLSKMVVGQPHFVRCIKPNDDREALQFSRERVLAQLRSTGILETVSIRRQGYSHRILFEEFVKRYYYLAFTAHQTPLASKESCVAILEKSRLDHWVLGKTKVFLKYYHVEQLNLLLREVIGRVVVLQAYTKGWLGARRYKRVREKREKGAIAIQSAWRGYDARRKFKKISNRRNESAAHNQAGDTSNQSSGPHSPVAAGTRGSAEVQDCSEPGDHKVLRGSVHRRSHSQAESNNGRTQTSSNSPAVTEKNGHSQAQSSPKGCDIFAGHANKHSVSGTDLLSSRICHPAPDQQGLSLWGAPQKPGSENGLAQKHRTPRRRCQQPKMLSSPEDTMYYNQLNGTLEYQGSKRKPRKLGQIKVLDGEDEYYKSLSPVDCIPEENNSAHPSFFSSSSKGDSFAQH

[6] = target: T6, PIP5K1A (Homo sapiens, UniProt Q99755)
T6 construct: purchased Eurofins DiscoverX KINOMEscan (scanMAX 468)

[7] = target: T7, CDKL2 (Homo sapiens, UniProt Q92772)
T7 construct: purchased Eurofins DiscoverX KINOMEscan (scanMAX 468)
T7 sequence (Q92772 whole entry): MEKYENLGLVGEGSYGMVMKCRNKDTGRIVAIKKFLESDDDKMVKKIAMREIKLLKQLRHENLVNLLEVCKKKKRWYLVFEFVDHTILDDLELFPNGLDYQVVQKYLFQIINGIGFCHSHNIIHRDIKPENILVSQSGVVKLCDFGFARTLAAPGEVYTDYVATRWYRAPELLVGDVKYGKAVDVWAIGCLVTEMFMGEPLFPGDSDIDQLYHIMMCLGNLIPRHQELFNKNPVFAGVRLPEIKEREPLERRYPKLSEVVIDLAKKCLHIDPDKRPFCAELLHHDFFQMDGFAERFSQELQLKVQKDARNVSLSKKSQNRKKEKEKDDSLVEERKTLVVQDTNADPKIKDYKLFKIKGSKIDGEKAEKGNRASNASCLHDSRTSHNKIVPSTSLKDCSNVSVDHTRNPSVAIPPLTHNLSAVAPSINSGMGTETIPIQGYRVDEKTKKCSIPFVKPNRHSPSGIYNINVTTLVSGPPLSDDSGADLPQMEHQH

[8] = target: T8, MAP4K4 (Homo sapiens, UniProt O95819)
T8 construct: purchased Eurofins DiscoverX KINOMEscan (scanMAX 468)

[9] = target: T9, MARK4 (Homo sapiens, UniProt Q96L34)
T9 construct: purchased Eurofins DiscoverX KINOMEscan (scanMAX 468)

[10] = target: T10, PLK4 (Homo sapiens, UniProt O00444)
T10 construct: purchased Eurofins DiscoverX KINOMEscan (scanMAX 468)
T10 sequence (O00444 whole entry): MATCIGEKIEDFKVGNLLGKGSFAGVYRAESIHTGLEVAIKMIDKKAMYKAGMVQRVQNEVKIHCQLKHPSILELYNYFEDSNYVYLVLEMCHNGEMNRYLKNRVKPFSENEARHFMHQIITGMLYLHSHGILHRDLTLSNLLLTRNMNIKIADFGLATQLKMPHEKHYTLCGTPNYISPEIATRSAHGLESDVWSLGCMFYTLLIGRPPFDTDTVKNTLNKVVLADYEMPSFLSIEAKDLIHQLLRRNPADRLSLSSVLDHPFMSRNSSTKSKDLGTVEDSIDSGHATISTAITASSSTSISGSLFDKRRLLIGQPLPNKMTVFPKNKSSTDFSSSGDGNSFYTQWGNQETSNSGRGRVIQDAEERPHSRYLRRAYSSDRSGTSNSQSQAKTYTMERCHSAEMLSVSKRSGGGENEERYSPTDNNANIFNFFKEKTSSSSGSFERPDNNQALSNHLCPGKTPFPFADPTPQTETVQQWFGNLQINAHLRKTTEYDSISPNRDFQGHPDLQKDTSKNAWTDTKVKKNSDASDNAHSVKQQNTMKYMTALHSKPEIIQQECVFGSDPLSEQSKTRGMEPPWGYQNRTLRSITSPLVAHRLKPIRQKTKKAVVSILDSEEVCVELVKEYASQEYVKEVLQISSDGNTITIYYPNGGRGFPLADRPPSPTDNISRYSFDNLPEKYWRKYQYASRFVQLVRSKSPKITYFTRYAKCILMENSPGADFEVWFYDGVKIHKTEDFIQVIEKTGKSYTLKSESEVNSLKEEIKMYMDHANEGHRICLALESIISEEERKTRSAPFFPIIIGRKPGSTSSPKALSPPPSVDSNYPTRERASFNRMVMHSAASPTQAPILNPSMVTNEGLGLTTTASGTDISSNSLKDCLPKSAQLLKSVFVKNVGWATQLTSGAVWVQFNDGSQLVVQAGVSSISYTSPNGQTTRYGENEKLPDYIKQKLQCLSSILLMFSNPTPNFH

[11] = target: T11, QSK (Homo sapiens, UniProt Q9Y2K2)
T11 construct: purchased Eurofins DiscoverX KINOMEscan (scanMAX 468)

[12] = target: T12, ABL1(T315I)-nonphosphorylated (Homo sapiens, UniProt P00519, T315I)
T12 construct: purchased Eurofins DiscoverX KINOMEscan (scanMAX 468)

[13] = target: T13, CSNK1A1L (Homo sapiens, UniProt Q8N752)
T13 construct: purchased Eurofins DiscoverX KINOMEscan (scanMAX 468)

[14] = target: T14, WNK4 (Homo sapiens, UniProt Q96J92)
T14 construct: purchased Eurofins (KINOMEscan, DiscoverX)

[15] = target: T15, PIK3CA (Homo sapiens, UniProt P42336)
T15 construct: purchased Eurofins DiscoverX KINOMEscan (scanMAX 468)

[16] = target: T16, PRKG1 (Homo sapiens, UniProt Q13976)
T16 construct: purchased Eurofins DiscoverX KINOMEscan (scanMAX 468)

[17] = target: T17, EPHA3 (Homo sapiens, UniProt P29320)
T17 construct: purchased Eurofins DiscoverX KINOMEscan (scanMAX 468)
T17 sequence (P29320 21-983): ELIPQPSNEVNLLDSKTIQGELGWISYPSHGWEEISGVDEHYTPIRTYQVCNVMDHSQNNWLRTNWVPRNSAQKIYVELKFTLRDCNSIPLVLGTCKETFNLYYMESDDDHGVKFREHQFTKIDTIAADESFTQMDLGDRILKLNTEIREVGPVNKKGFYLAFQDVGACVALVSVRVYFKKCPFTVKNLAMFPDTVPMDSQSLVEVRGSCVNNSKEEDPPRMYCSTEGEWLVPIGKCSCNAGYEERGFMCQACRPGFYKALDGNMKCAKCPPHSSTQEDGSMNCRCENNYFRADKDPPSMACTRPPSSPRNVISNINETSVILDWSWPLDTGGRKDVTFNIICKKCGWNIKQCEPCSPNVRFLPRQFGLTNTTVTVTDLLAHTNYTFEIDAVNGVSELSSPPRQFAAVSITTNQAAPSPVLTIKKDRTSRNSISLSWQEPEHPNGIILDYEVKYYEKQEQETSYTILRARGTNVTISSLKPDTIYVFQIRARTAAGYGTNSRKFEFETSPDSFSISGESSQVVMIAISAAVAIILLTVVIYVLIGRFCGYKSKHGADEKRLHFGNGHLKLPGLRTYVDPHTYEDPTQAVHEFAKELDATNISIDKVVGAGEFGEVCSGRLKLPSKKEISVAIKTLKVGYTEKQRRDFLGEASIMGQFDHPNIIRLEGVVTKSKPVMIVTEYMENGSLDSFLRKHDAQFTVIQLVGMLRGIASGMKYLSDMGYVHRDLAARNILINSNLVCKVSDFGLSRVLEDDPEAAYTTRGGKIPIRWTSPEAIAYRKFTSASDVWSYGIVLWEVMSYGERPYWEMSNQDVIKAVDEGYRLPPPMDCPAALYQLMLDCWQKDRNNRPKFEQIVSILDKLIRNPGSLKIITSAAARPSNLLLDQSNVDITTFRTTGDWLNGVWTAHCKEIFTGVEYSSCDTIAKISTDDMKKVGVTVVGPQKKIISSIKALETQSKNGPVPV

[18] = target: T18, CAMK1D (Homo sapiens, UniProt Q8IU85)
T18 construct: purchased Eurofins DiscoverX KINOMEscan (scanMAX 468)
T18 sequence (Q8IU85 whole entry): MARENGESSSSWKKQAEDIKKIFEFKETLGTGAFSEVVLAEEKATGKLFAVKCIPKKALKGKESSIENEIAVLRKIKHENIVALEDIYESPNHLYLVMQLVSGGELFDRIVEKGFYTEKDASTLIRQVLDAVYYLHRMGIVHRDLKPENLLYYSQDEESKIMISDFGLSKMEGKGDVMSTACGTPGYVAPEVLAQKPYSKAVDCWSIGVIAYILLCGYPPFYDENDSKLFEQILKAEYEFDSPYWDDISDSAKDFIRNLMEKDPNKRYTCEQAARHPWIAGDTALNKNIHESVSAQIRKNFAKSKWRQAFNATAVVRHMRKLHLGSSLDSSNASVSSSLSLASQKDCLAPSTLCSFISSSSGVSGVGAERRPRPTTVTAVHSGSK

[19] = target: T19, ZAK (Homo sapiens, UniProt Q9NYL2)
T19 construct: purchased Eurofins (KINOMEscan, DiscoverX)

[20] = target: T20, MAPKAPK5 (Homo sapiens, UniProt Q8IW41)
T20 construct: purchased Eurofins DiscoverX KINOMEscan (scanMAX 468)

[21] = target: T21, AXL (Homo sapiens, UniProt P30530)
T21 construct: purchased Eurofins DiscoverX KINOMEscan (scanMAX 468)

[22] = target: T22, IKK-alpha (Homo sapiens, UniProt O15111)
T22 construct: purchased Eurofins DiscoverX KINOMEscan (scanMAX 468)

[23] = target: T23, RSK1(Kin.Dom.1-N-terminal) (Homo sapiens, UniProt Q15418)
T23 construct: RSK1(Kin.Dom.1-N-terminal); purchased Eurofins DiscoverX KINOMEscan (scanMAX 468)

[24] = target: T24, MLK3 (Homo sapiens, UniProt Q16584)
T24 construct: purchased Eurofins DiscoverX KINOMEscan (scanMAX 468)
T24 sequence (Q16584 whole entry): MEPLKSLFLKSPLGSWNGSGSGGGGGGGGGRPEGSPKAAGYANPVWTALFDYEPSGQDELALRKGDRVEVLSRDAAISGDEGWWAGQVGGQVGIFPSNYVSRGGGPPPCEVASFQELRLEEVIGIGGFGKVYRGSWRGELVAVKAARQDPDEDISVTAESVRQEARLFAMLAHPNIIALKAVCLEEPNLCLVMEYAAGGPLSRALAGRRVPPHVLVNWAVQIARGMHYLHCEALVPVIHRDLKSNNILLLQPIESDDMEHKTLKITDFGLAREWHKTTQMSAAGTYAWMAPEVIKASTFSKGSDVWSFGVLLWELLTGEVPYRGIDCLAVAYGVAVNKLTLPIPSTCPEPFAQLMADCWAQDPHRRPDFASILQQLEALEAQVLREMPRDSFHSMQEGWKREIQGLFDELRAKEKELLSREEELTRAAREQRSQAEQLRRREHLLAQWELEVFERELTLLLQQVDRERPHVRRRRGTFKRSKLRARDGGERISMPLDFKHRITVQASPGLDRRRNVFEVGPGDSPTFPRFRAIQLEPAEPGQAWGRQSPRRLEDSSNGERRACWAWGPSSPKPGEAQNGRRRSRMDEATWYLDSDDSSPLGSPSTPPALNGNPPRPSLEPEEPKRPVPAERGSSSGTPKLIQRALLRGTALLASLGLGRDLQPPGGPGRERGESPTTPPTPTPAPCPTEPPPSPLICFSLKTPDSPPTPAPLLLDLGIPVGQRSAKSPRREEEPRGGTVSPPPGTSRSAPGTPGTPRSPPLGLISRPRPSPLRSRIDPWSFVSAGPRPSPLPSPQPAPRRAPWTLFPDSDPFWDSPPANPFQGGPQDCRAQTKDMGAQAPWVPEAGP

[25] = target: T25, DAPK1 (Homo sapiens, UniProt P53355)
T25 construct: purchased Eurofins DiscoverX KINOMEscan (scanMAX 468)

[26] = target: T26, AURKB (Homo sapiens, UniProt Q96GD4)
T26 construct: purchased Eurofins DiscoverX KINOMEscan (scanMAX 468)

[27] = target: T27, PRKX (Homo sapiens, UniProt P51817)
T27 construct: purchased Eurofins DiscoverX KINOMEscan (scanMAX 468)

[28] = target: T28, MKNK1 (Homo sapiens, UniProt Q9BUB5)
T28 construct: purchased Eurofins DiscoverX KINOMEscan (scanMAX 468)

[29] = target: T29, ROCK2 (Homo sapiens, UniProt O75116)
T29 construct: purchased Eurofins DiscoverX KINOMEscan (scanMAX 468)

[30] = target: T30, PIK3CA(E545A) (Homo sapiens, UniProt P42336, E545A)
T30 construct: purchased Eurofins DiscoverX KINOMEscan (scanMAX 468)

[31] = target: T31, PIP5K1C (Homo sapiens, UniProt O60331)
T31 construct: purchased Eurofins DiscoverX KINOMEscan (scanMAX 468)

[32] = target: T32, AURKA (Homo sapiens, UniProt O14965)
T32 construct: purchased Eurofins DiscoverX KINOMEscan (scanMAX 468)

[33] = target: T33, RIOK1 (Homo sapiens, UniProt Q9BRS2)
T33 construct: purchased Eurofins DiscoverX KINOMEscan (scanMAX 468)

[34] = target: T34, EPHA6 (Homo sapiens, UniProt Q9UF33)
T34 construct: purchased Eurofins DiscoverX KINOMEscan (scanMAX 468)

[35] = target: T35, EGFR(L858R) (Homo sapiens, UniProt P00533, L858R)
T35 construct: purchased Eurofins DiscoverX KINOMEscan (scanMAX 468)

[36] = target: T36, CDC2L5 (Homo sapiens, UniProt Q14004)
T36 construct: purchased Eurofins DiscoverX KINOMEscan (scanMAX 468)

[37] = target: T37, RSK3(Kin.Dom.2-C-terminal) (Homo sapiens, UniProt Q15349)
T37 construct: RSK3(Kin.Dom.2-C-terminal); purchased Eurofins DiscoverX KINOMEscan (scanMAX 468)

[38] = target: T38, p38-beta (Homo sapiens, UniProt Q15759)
T38 construct: purchased Eurofins DiscoverX KINOMEscan (scanMAX 468)

[39] = target: T39, LOK (Homo sapiens, UniProt O94804)
T39 construct: purchased Eurofins DiscoverX KINOMEscan (scanMAX 468)

[40] = target: T40, HIPK2 (Homo sapiens, UniProt Q9H2X6)
T40 construct: purchased Eurofins DiscoverX KINOMEscan (scanMAX 468)

[41] = target: T41, RPS6KA5(Kin.Dom.1-N-terminal) (Homo sapiens, UniProt O75582)
T41 construct: RPS6KA5(Kin.Dom.1-N-terminal); purchased Eurofins DiscoverX KINOMEscan (scanMAX 468)

[42] = target: T42, BRSK2 (Homo sapiens, UniProt Q8IWQ3)
T42 construct: purchased Eurofins DiscoverX KINOMEscan (scanMAX 468)

Measured: remaining binding at 1 µM

Cc1ccc(-n2cc(COc3cccc4cnc(Nc5cccc(Cl)c5)nc34)nn2)c([N+](=O)[O-])c1 [DB18]
85%: [1]
94%: [35]
99%: [10] | [20] | [26]
97%: [7] | [19] | [27] | [42]
95%: [15]
87%: [21]
62%: [3]
96%: [4] | [11]
33%: [40]
84%: [5]
89%: [12]
98%: [23]
100%: all other assays above
